Test results published in the supplement of paper PMC10307832.

Legend:
Experiment in all cases: relative viability (nuclei count vs DMSO), 5 days (fraction); higher = more cells survive
IU1-47 + Palbociclib = compound: CC1=CC(=C(N1C2=CC=C(C=C2)Cl)C)C(=O)CN3CCCCC3 [IU1-47] + CC(=O)c1c(C)c2cnc(Nc3ccc(N4CCNCC4)cn3)nc2n(C2CCCC2)c1=O [Palbociclib] (partner 0.5 µM)
How it was run: (§1)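 For relative viability, nuclei counts in treated wells were divided by those in vehicle wells. Lung cancer cell lines had been pin-tool dosed in 1536-well plates the day after seeding and cultured for 5 days, then fixed and stained in one step (final 0.05% Triton X-100, 1% formaldehyde, 1 ug/ml Hoechst) and imaged at 4×. Doses were one drug alone or a fixed anchor-drug dose plus five library-drug doses (not always all listed) in √10 steps, and values are duplicate-plate medians.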

FG-4592 + Decitabine = compound: Cc1nc(C(=O)NCC(=O)O)c(O)c2ccc(Oc3ccccc3)cc12 [FG-4592] + Nc1ncn([C@H]2C[C@H](O)[C@@H](CO)O2)c(=O)n1 [Decitabine] (partner 2 µM)
How it was run: as §1

IU1-47 + Pemetrexed = compound: CC1=CC(=C(N1C2=CC=C(C=C2)Cl)C)C(=O)CN3CCCCC3 [IU1-47] + Nc1nc2[nH]cc(CCc3ccc(C(=O)N[C@@H](CCC(=O)O)C(=O)O)cc3)c2c(=O)[nH]1 [Pemetrexed] (partner 0.2 µM)
How it was run: as §1

FG-4592 + Alpelisib = compound: Cc1nc(C(=O)NCC(=O)O)c(O)c2ccc(Oc3ccccc3)cc12 [FG-4592] + Cc1nc(NC(=O)N2CCC[C@H]2C(N)=O)sc1-c1ccnc(C(C)(C)C(F)(F)F)c1 [Alpelisib] (partner 2 µM)
How it was run: as §1

Row | Cell Line | relative viability (IU1-47 + Palbociclib; first compound 0.08 µM) | relative viability (IU1-47 + Palbociclib; first compound 0.253 µM) | relative viability (IU1-47 + Palbociclib; first compound 0.8 µM) | relative viability (IU1-47 + Palbociclib; first compound 2.53 µM) | relative viability (IU1-47 + Palbociclib; first compound 8 µM) | relative viability (FG-4592 + Decitabine; first compound 0.08 µM) | relative viability (FG-4592 + Decitabine; first compound 0.253 µM) | relative viability (FG-4592 + Decitabine; first compound 0.8 µM) | relative viability (FG-4592 + Decitabine; first compound 2.53 µM) | relative viability (FG-4592 + Decitabine; first compound 8 µM) | relative viability (IU1-47 + Pemetrexed; first compound 0.08 µM) | relative viability (IU1-47 + Pemetrexed; first compound 0.253 µM) | relative viability (IU1-47 + Pemetrexed; first compound 0.8 µM) | relative viability (IU1-47 + Pemetrexed; first compound 2.53 µM) | relative viability (IU1-47 + Pemetrexed; first compound 8 µM) | relative viability (FG-4592 + Alpelisib; first compound 0.08 µM) | relative viability (FG-4592 + Alpelisib; first compound 0.253 µM) | relative viability (FG-4592 + Alpelisib; first compound 0.8 µM) | relative viability (FG-4592 + Alpelisib; first compound 2.53 µM) | relative viability (FG-4592 + Alpelisib; first compound 8 µM)
1 | NCI-H1755 | 0.44 | 0.518 | 0.461 | 0.46 | 0.436 | 0.697 | 0.773 | 0.736 | 0.679 | 0.689 | 0.434 | 0.439 | 0.825 | 0.454 | 0.445 | 0.906 | 0.888 | 0.906 | 0.945 | 0.878
2 | HCC-78 | 0.474 | 0.441 | 0.5 | 0.507 | 0.457 | 0.666 | – | 0.694 | 0.652 | 0.562 | 0.898 | 0.889 | 0.929 | 0.865 | 0.862 | 0.379 | 0.339 | 0.223 | 0.287 | 0.308
3 | IA-LM | – | – | – | – | – | – | – | – | – | – | – | – | – | – | – | 0.827 | 0.707 | 0.878 | 0.54 | 0.433
4 | NCI-H322M | 0.489 | 0.551 | 0.487 | 0.537 | 0.494 | – | 0.658 | 0.714 | 0.638 | 0.725 | 0.662 | 0.648 | 0.829 | 0.582 | 0.607 | 0.194 | 0.797 | 0.595 | 0.941 | 0.852
5 | NCI-H3122 | 0.186 | 0.189 | 0.18 | 0.275 | 0.212 | 0.405 | 0.476 | 0.332 | 0.48 | 0.362 | 0.197 | 0.206 | 0.204 | 0.218 | 0.205 | 0.861 | 0.764 | 0.665 | 0.781 | 0.733
6 | COR-L23 | 0.313 | 0.32 | 0.284 | 0.245 | 0.279 | 0.422 | 0.371 | 0.377 | 0.393 | 0.362 | 0.212 | 0.18 | 0.199 | 0.195 | 0.208 | 0.751 | 0.653 | 0.918 | 0.768 | 0.783
7 | NCI-H2087 | 0.204 | 0.302 | 0.239 | 0.174 | 0.25 | 0.368 | 0.308 | 0.348 | – | 0.256 | 0.668 | 0.637 | 0.693 | 0.716 | 0.556 | 1.11 | 0.956 | 1.11 | 1.05 | 1.03
8 | LC-2-ad | 0.498 | 0.509 | 0.484 | – | 0.488 | 0.804 | 0.66 | 0.755 | 0.853 | 0.837 | 0.284 | 0.283 | 0.268 | – | 0.262 | 0.799 | 0.842 | 0.865 | 0.943 | 0.926
9 | NCI-H1915 | 0.561 | 0.513 | 0.539 | 0.565 | 0.528 | 0.271 | 0.28 | 0.284 | 0.255 | 0.252 | 0.586 | 0.515 | 0.46 | 0.562 | 0.553 | 1.04 | 1.02 | 1.05 | 1.01 | 1.05
10 | NCI-H1793 | 0.306 | – | 0.317 | 0.359 | 0.276 | – | 0.476 | – | 0.55 | 0.398 | 0.691 | – | 0.802 | 0.798 | 0.629 | 0.772 | 0.678 | – | 0.719 | 0.557
11 | ChaGo-K-1 | 0.96 | 0.915 | 1.05 | 0.897 | 0.819 | 0.508 | 0.427 | 0.509 | 0.493 | 0.466 | 0.26 | 0.257 | 0.282 | 0.249 | 0.268 | – | – | – | – | –
12 | NCI-H522 | 0.987 | 0.988 | 1.36 | 0.845 | 0.956 | 0.706 | 0.514 | – | 0.65 | 0.74 | 0.923 | 0.975 | 1.02 | 0.735 | 0.958 | – | – | – | – | –
13 | NCI-H1299 | – | – | – | – | – | – | – | – | – | – | – | – | – | – | – | 1.06 | 0.999 | 1.05 | 1.04 | 1.04
14 | NCI-H1650 | 0.322 | 0.313 | 0.27 | 0.317 | 0.287 | 0.504 | 0.378 | 0.358 | 0.421 | 0.331 | 0.419 | 0.338 | 0.335 | 0.36 | 0.294 | – | – | – | – | –
15 | NCI-H1648 | 0.285 | 0.289 | 0.282 | 0.249 | 0.265 | 0.549 | 0.484 | – | 0.416 | 0.635 | 0.776 | 0.888 | 1.01 | 0.644 | 0.494 | – | – | – | – | –
16 | NCI-H596 | – | – | – | – | – | 0.92 | 1.01 | – | 0.897 | 0.8 | 0.491 | – | 0.494 | 0.508 | 0.446 | 0.418 | 0.482 | – | 0.499 | 0.527
17 | NCI-H727 | 0.642 | 0.648 | 0.606 | 0.686 | 0.669 | 0.889 | 0.663 | 1.15 | 0.9 | 0.84 | – | – | – | – | – | 0.533 | 0.582 | 0.545 | 0.56 | 0.561
18 | NCI-H2342 | 0.564 | 0.569 | 0.487 | 0.527 | 0.519 | 0.841 | 0.793 | 0.662 | 0.772 | 0.608 | 0.794 | 0.782 | 0.942 | 0.825 | 0.693 | – | – | – | – | –
19 | SW 900 | 0.53 | – | 0.564 | 0.621 | 0.513 | – | 0.47 | – | 0.465 | 0.349 | 0.478 | – | 0.495 | 0.472 | 0.383 | – | – | – | – | –
20 | A549 | – | – | – | – | – | 0.276 | 0.214 | 0.378 | 0.281 | 0.207 | – | – | – | – | – | 0.831 | 0.626 | 0.823 | 0.759 | 0.686
21 | NCI-H1563 | – | – | – | – | – | – | – | – | – | – | 0.892 | 0.829 | 0.871 | 0.703 | 0.716 | 1.03 | 0.949 | 0.939 | 0.936 | 0.845
22 | ABC-1 | 0.763 | 0.921 | 0.65 | – | 0.582 | 0.87 | 1.09 | – | 0.898 | 0.957 | – | – | – | – | – | 1.17 | – | 1.17 | 0.958 | 0.866
